No end group written: not given here.
Tests used:
[1] = tested on: human monocytes; experiment: [Ca2+]i rise in human monocytes (fura-2/AM); type: cell-based
Protocol: The level of [Ca^2+]i was determined by Grynkiewicz's method using fura-2/AM (21). Briefly, prepared cells were incubated with 3 μM fura-2/AM at 37° C. for 50 minutes in a fresh serum-free RPMI 1640 medium under continuous stirring. 2×10^6 cells were aliquoted for each assay in Ca^2+-free Locke's solution (154 mM NaCl, 5.6 mM KCl1.2 mM MgCl2, 5 mM HEPES, pH 7.3, 10 mM glucose, and 0.2 mM EGTA). The fluorescence changes at the dual excitation wavelengths of 340 nm and 380 nm and the emission wavelength of 500 nm were measured, and the calibrated fluorescence ratio was translated into [Ca^2+]i.
Many extracellular agonists that stimulate superoxide generation in human phagocytic cells involve intracellular calcium rise (23). In this example, the effect of the peptides on the [Ca^2+]i of monocytes were tested. The results are shown FIG. 3. The data of FIG. 3 are presented as means ±S.E. of four independent experiments. *P<0.01 versus vehicle treatment.
Fura-2-loaded monocytes were stimulated with an effective concentration of HFYLPM (1 μM), MFYLPM (1 μM), HFYLPm (100 nM), and LFMYHP (10 μM). The change in 340 nm/380 nm was monitored. The cells were stimulated with various concentrations of each peptide. The peak level of the increase in [Ca^2+]i was monitored. […] The results of A of FIG. 3 are representative of 6 independent experiments. […]

[2] = tested on: human monocytes; experiment: Checkboard analysis of monocyte migration across polycarbonate membrane; type: cell-based; conditions: 2 hr
Protocol: Chemotaxis assays of the peptide were performed using multiwell chambers (Neuroprobe Inc., Gaithersburg, Md.) (20). Briefly, the prepared isolated human monocytes were suspended in RPMI at a concentration of 1×10^6 cells/ml of serum-free RPMI, and 25 □ of the suspension were placed onto the upper well of a 96-well chemotaxis chamber that was separated by a […] filter with a 5 □ pore size (3 □ diameter pores not coated with polyvinylpyrrolidone for neutrophils) from peptides or an fMLF-containing lower well. After incubation for 2 hours (90 minutes for neutrophils) at 37° C., non-migrated cells were removed by scraping them out, and cells that migrated across the filter were dehydrated, fixed, and stained with hematoxylin (Sigma, St. Louis, Mo.). The stained cells in five randomly chosen high power fields (HPF) (400×) in that well were then counted (21). The numbers of migrated cells were determined by counting them in a high power field (400×). For a checkboard analysis, cells were re-suspended in RPMI containing various concentrations of the peptide just before transferring them to the upper wells as described before (22).
To distinguish whether the peptide-induced monocyte migration is chemotaxis or chemokinesis, a checkboard analysis was performed as described above (22, 26).

[3] = tested on: human neutrophils; experiment: Superoxide generation by human neutrophils (cytochrome c reduction assay); type: cell-based; conditions: FIG. 4B; 10 μM of each peptide
Protocol: (§1) For initial screening of the PS-SPCLs, the superoxide anion generation of each peptide pool was evaluated by measuring reduction of cytochrome c using a microtiter 96 well plate ELISA reader (Bio-Tekinstruments, EL312e, Winooski, Vt.) as described (20). The cytochrome c was purchased from Sigma (St. Louis, Mo.). The human monocytes (9×10^5 cells/100 □ of RPMI 1640 medium per well of a 96-well plate) were preincubated with 50 μM cytochrome c at 37° C. for 1 minute and then incubated with the indicated concentrations of peptide pools (final 0.5 nM per peptide sequence for the initial screening). The superoxide generation was measured as change in light absorption at 550 nm over 5 minutes at 1 minute intervals. From at least four independent experiments, peptides with active amino acids at each position were chosen. Superoxide generation by the identified peptides was measured by the same method. Spurious reduction of cytochrome c was ruled out by checking that the peptides-induced ones were superoxide dismutase-inhibitable in all experiments.
From the fact that HFYLPM, MFYLPM, and HFYLPm stimulate human monocytes, effects of the peptides on other leukocytes such as neutrophils were evaluated. […] The peak level of the [Ca^2+]i increase was recorded and superoxide generation was measured using cytochrome c reduction assay. […]

[4] = tested on: differentiated HL60 cells; experiment: Superoxide generation in differentiated HL60 cells; type: cell-based, human; conditions: similar concentrations as for the [Ca2+]i increase
Protocol: as §1
A test where the three peptides on HL60 cells that had differentiated into granulocytes after having been cultured in the presence of 1.25% DMSO for 4 days was performed. HL60 cells were cultured in RPMI medium containing 20% FCS. […] The peak level of the [Ca^2+]i increase was recorded. […]

## Met-Phe-Tyr-Leu-Pro-Met-CONH2 (MFYLPM-NH2)
[1]; FIG. 3A, HFYLPM 1 μM, MFYLPM 1 μM, HFYLPm 100 nM, LFMYHP 10 μM
  effect on [Ca2+]i in monocytes: caused intracellular Ca mobilization
[1]; FIG. 3B
  concentration of maximal [Ca2+]i increase: 1 µM
[2]; peptide below 0 nM, above 10 nM
  migrated monocytes in 5 HPF: 11.3 ± 2.42
[2]; peptide below 0 nM, above 100 nM
  migrated monocytes in 5 HPF: 15.0 ± 3.50
[2]; peptide below 0 nM, above 1000 nM
  migrated monocytes in 5 HPF: 11.0 ± 2.67
[2]; peptide below 10 nM, above 0 nM
  migrated monocytes in 5 HPF: 198 ± 32.3
[2]; peptide below 10 nM, above 10 nM
  migrated monocytes in 5 HPF: 33.7 ± 8.93
[2]; peptide below 10 nM, above 100 nM
  migrated monocytes in 5 HPF: 16.0 ± 3.16
[2]; peptide below 10 nM, above 1000 nM
  migrated monocytes in 5 HPF: 12.3 ± 3.43
[2]; peptide below 100 nM, above 0 nM
  migrated monocytes in 5 HPF: 557 ± 29.5
[2]; peptide below 100 nM, above 10 nM
  migrated monocytes in 5 HPF: 425 ± 48.3
[2]; peptide below 100 nM, above 100 nM
  migrated monocytes in 5 HPF: 66.3 ± 14.9
[2]; peptide below 100 nM, above 1000 nM
  migrated monocytes in 5 HPF: 18.0 ± 4.05
[2]; peptide below 1000 nM, above 0 nM
  migrated monocytes in 5 HPF: 484 ± 43.6
[2]; peptide below 1000 nM, above 10 nM
  migrated monocytes in 5 HPF: 395 ± 38.5
[2]; peptide below 1000 nM, above 100 nM
  migrated monocytes in 5 HPF: 198 ± 26.7
[2]; peptide below 1000 nM, above 1000 nM
  migrated monocytes in 5 HPF: 76.7 ± 18.9
[3]
  superoxide generation by neutrophils: generate superoxides
[4]
  superoxide generation in differentiated HL60 cells: resulted in superoxide generation

Reference: patent US7390870B2, “Immune-enhancing peptides” (Posco, priority 2001, dated 2008)
